Columns and labels:
Assay type in all cases: functional
SMA-560 [1] = test: Induction of apoptosis in mouse SMA-560 cells assessed as live cells incubated for 72 hrs by Annexin V-FITC/PI staining based flow cytometric analysis (reference value: 84.6%)
SMA-560 [2] = test: Induction of apoptosis in mouse SMA-560 cells assessed as late apoptotic cells incubated for 72 hrs by Annexin V-FITC/PI staining based flow cytometric analysis (reference value: 1.83%)
SMA-560 [3] = test: Induction of apoptosis in mouse SMA-560 cells assessed as early apoptotic cells incubated for 72 hrs by Annexin V-FITC/PI staining based flow cytometric analysis (reference value: 0.0056%)

In the case of `CN[C@@H]1C[C@H]2O[C@@](C)([C@@H]1OC)n1c3ccccc3c3c4c(c5c6ccccc6n2c5c31)C(=O)NC4` [STAUROSPORINE], the Activity (SMA-560 [1]) is reported as 1.29%, the Activity (SMA-560 [2]) is reported as 87.7% and the Activity (SMA-560 [3]) is reported as 0%.
